Where a name gives a salt, the structure may show the parent alone.
target: ROCK2 (Homo sapiens, UniProt O75116); experiment: ROCK2 kinase inhibition assay (LABCHIP 3000 Reader, FITC peptide substrate); conditions: not given;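 also: rho kinase reaction read by separating phosphorylated from unphosphorylated peptide on chip, with inhibition of kinase activity computed per concentration across a dose-response series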
Sequence (O75116 whole entry, species assumed): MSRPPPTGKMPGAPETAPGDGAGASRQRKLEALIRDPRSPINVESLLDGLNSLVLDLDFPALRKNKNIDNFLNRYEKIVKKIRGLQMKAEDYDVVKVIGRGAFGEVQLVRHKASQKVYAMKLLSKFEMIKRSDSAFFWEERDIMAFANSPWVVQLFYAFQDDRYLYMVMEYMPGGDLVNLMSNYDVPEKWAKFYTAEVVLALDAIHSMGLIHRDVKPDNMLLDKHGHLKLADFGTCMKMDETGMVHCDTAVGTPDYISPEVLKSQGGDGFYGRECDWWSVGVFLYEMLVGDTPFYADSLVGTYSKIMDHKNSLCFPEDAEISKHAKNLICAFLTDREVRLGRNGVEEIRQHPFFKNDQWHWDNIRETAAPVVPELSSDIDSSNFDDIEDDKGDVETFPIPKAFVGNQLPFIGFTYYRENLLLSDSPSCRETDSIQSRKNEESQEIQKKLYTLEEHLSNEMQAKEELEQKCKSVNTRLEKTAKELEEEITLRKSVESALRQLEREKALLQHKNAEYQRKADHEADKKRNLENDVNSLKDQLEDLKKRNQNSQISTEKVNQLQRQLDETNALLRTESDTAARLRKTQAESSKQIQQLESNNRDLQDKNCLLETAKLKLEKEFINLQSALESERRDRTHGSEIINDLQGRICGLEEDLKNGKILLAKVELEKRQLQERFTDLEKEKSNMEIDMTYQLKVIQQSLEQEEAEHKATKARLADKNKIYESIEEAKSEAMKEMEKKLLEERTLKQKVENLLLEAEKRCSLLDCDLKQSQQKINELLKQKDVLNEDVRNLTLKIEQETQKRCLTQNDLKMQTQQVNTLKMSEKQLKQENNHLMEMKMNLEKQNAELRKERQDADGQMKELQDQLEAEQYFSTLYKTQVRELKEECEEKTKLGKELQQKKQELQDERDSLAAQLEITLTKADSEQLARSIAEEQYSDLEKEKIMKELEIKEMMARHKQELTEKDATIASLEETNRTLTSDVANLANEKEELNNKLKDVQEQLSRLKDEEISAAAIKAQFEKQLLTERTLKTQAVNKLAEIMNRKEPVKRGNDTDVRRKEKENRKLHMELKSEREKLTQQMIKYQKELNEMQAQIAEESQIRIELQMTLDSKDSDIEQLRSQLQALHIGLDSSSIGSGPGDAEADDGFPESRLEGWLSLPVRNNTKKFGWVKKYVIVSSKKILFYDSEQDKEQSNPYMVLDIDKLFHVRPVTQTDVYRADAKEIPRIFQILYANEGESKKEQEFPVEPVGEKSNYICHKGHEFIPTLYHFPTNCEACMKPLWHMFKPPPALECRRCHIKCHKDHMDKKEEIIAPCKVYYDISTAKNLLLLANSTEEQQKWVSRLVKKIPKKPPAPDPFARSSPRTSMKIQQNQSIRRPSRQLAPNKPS

Structure (SMILES)	IC50 [nM]
CC(C)(O)COc1ccc2c(C(=O)NC3CC4(C3)CC(Oc3cc(Br)ccc3C(N)=O)C4)cnn2c1 (centres unmarked) [Example 272, N-(6-(5-bromo-2-carbamoylphenoxy)spiro[3.3]heptan-2-yl)-6-(2-hydroxy-2-methylpropoxy)pyrazolo[1,5-a]pyridine-3-carboxamide]	< 5
CC(C)(O)COc1ccc2c(C(=O)NC3CC4(C3)CC(Oc3cc(O)ccc3C(N)=O)C4)cnn2c1 (centres unmarked) [Example 259, N-(6-(2-carbamoyl-5-hydroxyphenoxy)spiro[3.3]heptan-2-yl)-6-(2-hydroxy-2-methylpropoxy)pyrazolo[1,5-a]pyridine-3-carboxamide]	5 to 50
COc1ccc(OC2CC3(CC(NC(=O)c4cnn5cc(OCC(C)(C)O)ccc45)C3)C2)c(C(N)=O)c1 (centres unmarked) [Example 212, N-(6-(2-carbamoyl-4-methoxyphenoxy)spiro[3.3]heptan-2-yl)-6-(2-hydroxy-2-methylpropoxy)pyrazolo[1,5-a]pyridine-3-carboxamide]	250 to 2500
COc1ccc(C(N)=O)c(O[C@H]2CC3(C[C@H](NC(=O)c4cnn5c(C6CC6)c(OCC(C)(C)O)ccc45)C3)C2)n1 (stereo partly drawn) [Example 167, N-((aR)-6-((3-carbamoyl-6-methoxypyridin-2-yl)oxy)spiro[3.3]heptan-2-yl)-7-cyclopropyl-6-(2-hydroxy-2-methylpropoxy)pyrazolo [1,5-a]pyridine-3-carboxamide]	< 5
COc1cccc(-n2cc(C(=O)NC3CC4(C3)CC(Oc3ncccc3C(N)=O)C4)cn2)c1 (centres unmarked) [Example 395]	5 to 50
Cn1nc(C(=O)N[C@H]2CC3(C2)C[C@H](Oc2ncccc2C(N)=O)C3)c2ccc(F)cc21 (stereo partly drawn) [Example 173, N-((aR)-6-((3-carbamoylpyridin-2-yl)oxy)spiro[3.3]heptan-2-yl)-6-fluoro-1-methyl-1H-indazole-3-carboxamide, trifluoroacetate]	5 to 50
N#Cc1ccc2nc(C(=O)N[C@H]3CC4(C3)C[C@H](Oc3ncccc3C(N)=O)C4)cn2c1 (stereo partly drawn) [Example 76, N-((aR)-6-((3-carbamoylpyridin-2-yl)oxy)spiro-[3.3]heptan-2-yl)-6-cyanoimidazo-[1,2-a]pyridine-2-carboxamide, trifluoroacetate]	250 to 2500
NC(=O)c1ccccc1O[C@H]1CC2(C[C@H](NC(=O)c3cnn4cc(OC5CCS(=O)(=O)CC5)ccc34)C2)C1 (stereo partly drawn) [Example 28, N-[(aR)-6-(2-carbamoylphenoxy)spiro [3.3]heptan-2-yl]-6-[(1,1-dioxo-1λ^6-thian-4-yl)oxy]pyrazolo [1,5-a]pyridine-3-carboxamide]	< 5
[H][C@]1(Oc2ncccc2C(N)=O)C[C@@]2(C[C@H](NC(=O)c3cnc4cc(-c5ccc(=O)n(C)c5)ccn34)C2)C1 (stereo partly drawn) [Example 370, N-((aR)-6-((3-carbamoylpyridin-2-yl)oxy)spiro[3.3]heptan-2-yl)-7-(1-methyl-6-oxo-1,6-dihydropyridin-3-yl)imidazo[1,2-a]pyridine-3-carboxamide]	< 5
Cc1cccc(C(N)=O)c1OC1CC2(CC(NC(=O)c3cnn4c(C5CC5)c(OCC(C)(C)O)ccc34)C2)C1 (centres unmarked) [Example 214, N-(6-(2-carbamoyl-6-methylphenoxy)spiro[3.3]heptan-2-yl)-7-cyclopropyl-6-(2-hydroxy-2-methylpropoxy)pyrazolo[1,5-a]pyridine-3-carboxamide]	250 to 2500
CC(C)(O)COc1ccc2c(C(=O)NC3CC4(C3)CC(Oc3cc(-c5cccc(OCCCN)c5)ccc3C(N)=O)C4)cnn2c1 (centres unmarked) [Example 288, N-(6-((3′-(3-aminopropoxy)-4-carbamoyl-[1,1′-biphenyl]-3-yl)oxy)spiro[3.3]heptan-2-yl)-6-(2-hydroxy-2-methylpropoxy)pyrazolo[1,5-a]pyridine-3-carboxamide]	5 to 50
CN1CCN(CCCc2ccc(C(N)=O)c(OC3CC4(CC(NC(=O)c5cnn6c(C7CC7)c(OCC(C)(C)O)ccc56)C4)C3)c2)CC1 (centres unmarked) [Example 267, N-(6-(2-carbamoyl-5-(3-(4-methylpiperazin-1-yl)propyl)phenoxy)spiro[3.3]heptan-2-yl)-7-cyclopropyl-6-(2-hydroxy-2-methylpropoxy)pyrazolo[1,5-a]pyridine-3-carboxamide]	5 to 50
[H][C@]1(Oc2ncccc2C(N)=O)C[C@@]2(C[C@H](NC(=O)c3cnn(-c4ccc(N5CCOCC5)cc4)c3C)C2)C1 (some centres unmarked) [Example 378]	50 to 250
NC(=O)c1cccnc1O[C@H]1CC2(C[C@H](NC(=O)c3cnn4cc(OC5CCC5)ccc34)C2)C1 (stereo partly drawn) [Example 338, N-((aR)-6-((3-carbamoylpyridin-2-yl)oxy)spiro[3.3]heptan-2-yl)-6-cyclobutoxypyrazolo[1,5-a]pyridine-3-carboxamide]	5 to 50
CN(C)CCCc1ccc(C(N)=O)c(OC2CC3(CC(NC(=O)c4cnn5cc(OCC(C)(C)O)ccc45)C3)C2)c1 (centres unmarked) [Example 262, N-(6-(2-carbamoyl-5-(3-(dimethylamino)propyl)phenoxy)spiro[3.3]heptan-2-yl)-6-(2-hydroxy-2-methylpropoxy)pyrazolo[1,5-a]pyridine-3-carboxamide]	5 to 50
Cn1nc(-c2ccccc2)cc1C(=O)N[C@H]1CC2(C1)C[C@H](Oc1ncccc1C(N)=O)C2 (stereo partly drawn) [Example 89, 2-((aR)-6-(1-methyl-3-phenyl-1H-pyrazole-5-carboxamido)spiro[3.3]heptan-2-yl)oxy) nicotinamide, trifluoroacetate]	250 to 2500
CC(C)(O)COc1ccc2c(C(=O)NC3CC4(C3)CC(Oc3cc(-c5cccc(C(N)C(=O)O)c5)ccc3C(N)=O)C4)cnn2c1 (centres unmarked) [Example 257, 2-amino-2-(4′-carbamoyl-3′-((6-(6-(2-hydroxy-2-methylpropoxy)pyrazolo[1,5-a]pyridine-3-carboxamido)spiro[3.3]heptan-2-yl)oxy)-[1,1′-biphenyl]-3-yl)acetic Acid]	5 to 50
NC(=O)c1cccnc1O[C@H]1CC2(C[C@H](NC(=O)c3cnc4c(C5CC5)cccn34)C2)C1 (stereo partly drawn) [Example 170, N-((aR)-6-((3-carbamoylpyridin-2-yl)oxy)spiro[3.3]heptan-2-yl)-8-cyclopropylimidazo[1,2-a]pyridine-3-carboxamide, Trifluoroacetate]	50 to 250
Cn1nc(C(=O)N[C@H]2CC3(C2)C[C@H](Oc2ncccc2C(N)=O)C3)cc1OCC(F)(F)C(F)F (stereo partly drawn) [Example 87, 2-((aR)-6-(1-methyl-5-(2,2,3,3-tetrafluoropropoxy)-1H-pyrazole-3-carboxamido)spiro[3.3]heptan-2-yl)oxy) nicotinamide, trifluoroacetate]	50 to 250
NC(=O)c1ccccc1OC1CC2(CC(NC(=O)c3cnn4cc(OC5CCOC5)ccc34)C2)C1 (centres unmarked) [Example 4, N-(6-(2-carbamoylphenoxy)spiro[3.3]heptan-2-yl)-6-((tetrahydrofuran-3-yl)oxy)pyrazolo[1,5-a]pyridine-3-carboxamide]	5 to 50
CC(C)(O)COc1ccc2c(C(=O)NC3CC4(C3)CC(Oc3cc(-c5cc(C#N)cc([N+](=O)[O-])c5)ccc3C(N)=O)C4)cnn2c1 (centres unmarked) [Example 254, N-(6-((4-carbamoyl-3′-cyano-5′-nitro-[1,1′-biphenyl]-3-yl)oxy)spiro[3.3]heptan-2-yl)-6-(2-hydroxy-2-methylpropoxy)pyrazolo[1,5-a]pyridine-3-carboxamide]	5 to 50
CN1CCN(c2ccc3c(C(=O)N[C@H]4CC5(C4)C[C@H](Oc4ncccc4C(N)=O)C5)cnn3c2)CC1 (stereo partly drawn) [Example 319, N-((aR)-6-((3-carbamoylpyridin-2-yl)oxy)spiro[3.3]heptan-2-yl)-6-(4-methylpiperazin-1-yl)pyrazolo[1,5-a]pyridine-3-carboxamide]	5 to 50
Cc1ccc(OC2CC3(CC(NC(=O)c4cnn5cc(OCC(C)(C)O)ccc45)C3)C2)c(C(N)=O)c1 (centres unmarked) [Example 218, N-(6-(2-carbamoyl-4-methylphenoxy)spiro[3.3]heptan-2-yl)-6-(2-hydroxy-2-methylpropoxy)pyrazolo[1,5-a]pyridine-3-carboxamide]	250 to 2500
NC(=O)c1cccnc1O[C@H]1CC2(C[C@H](NC(=O)c3cnc4c(C(F)(F)F)cccn34)C2)C1 (stereo partly drawn) [Example 346, N-((aR)-6-((3-carbamoylpyridin-2-yl)oxy)spiro[3.3]heptan-2-yl)-8-(trifluoromethyl)imidazo[1,2-a]pyridine-3-carboxamide]	50 to 250
[2H]C([2H])([2H])n1nc2cc(F)ccc2c1C(=O)N[C@H]1CC2(C1)C[C@H](Oc1ncccc1C(N)=O)C2 (stereo partly drawn) [Example 176, 6-fluoro-2-(^2H3)methyl-N-[(aR)-6-[(3-carbamoylpyridin-2-yl)oxy]spiro[3.3]heptan-2-yl]-2H-indazole-3-carboxamide, trifluoroacetate]	250 to 2500
[2H]C([2H])([2H])n1cc(-c2cc(C#N)cc(C(=O)N[C@H]3CC4(C3)C[C@H](Oc3ncccc3C(N)=O)C4)c2)cn1 (stereo partly drawn) [Example 181, 2-(((aR)-6-(3-cyano-5-(1-(methyl-d3)-1H-pyrazol-4-yl)benzamido)spiro [3.3]heptan-2-yl)oxy)nicotinamide, trifluoroacetate]	< 5
CC(C)(O)COc1ccc2c(C(=O)NC3CC4(C3)CC(Oc3cc(-c5cccc(F)c5)ccc3C(N)=O)C4)cnn2c1 (centres unmarked) [Example 242, N-(6-((4-carbamoyl-3′-fluoro-[1,1′-biphenyl]-3-yl)oxy)spiro[3.3]heptan-2-yl)-6-(2-hydroxy-2-methylpropoxy)pyrazolo[1,5-a]pyridine-3-carboxamide]	5 to 50

same assay, conditions: read-out: ROCK2 Activity (ROCK2 IC50); 5 μM ATP, 1.5 μM peptide substrate, pH 7.5

Structure (SMILES)	IC50 [nM]
Cc1nn(C)cc1-c1ccc2c(C(=O)NC3CC4(C3)CC(Oc3ncccc3C(N)=O)C4)nc(C(F)F)n2c1 [Example 445, N-((aR)-6-((3-carbamoylpyridin-2-yl)oxy)spiro[3.3]heptan-2-yl)-3-(difluoromethyl)-6-(1,3-dimethyl-1H-pyrazol-4-yl)imidazo[1,5-a]pyridine-1-carboxamide]	< 5
NC(=O)c1cccnc1O[C@H]1CC2(C[C@H](NC(=O)c3nn(C(F)F)c4cc(F)ccc34)C2)C1 (stereo partly drawn) [Example 103, N-((aR)-6-((3-carbamoylpyridin-2-yl)oxy)piro[3.3]heptan-2-yl-1-(difluoromethyl)-6-fluoro-1H-indazole-3-carboxamide, trifluoroacetate]	< 5

From patent US10829501B2 (BRISTOL-MYERS SQUIBB COMPANY, priority 2016, dated 2020)
